pIC50: −log10 of the molar value. Values after ≈ are worked out from the molar mass of the structure shown. Where two headings read alike, the source gives them in different places.
Legend:
[1] = system: C. neoformans growth versus IL-2 in murine T cells; assay: Therapeutic index score (immunosuppressive fold change to antifungal fold change relative to FK506); set-up: species or system Cryptococcus neoformans; mouse; conditions: Example 3; C. neoformans H99, FK506 = 1.0
Excerpt: To assess the therapeutic potential for these compounds, it was important to develop an approach to score and rank them based on antifungal and immunosuppressive activities. The therapeutic index score (TIscore) is a ratio of the immunosuppressive fold change to the antifungal fold change, with all values relative to the baseline FK506 activity (FIG. 6B). A TIscore of >1.0 indicates an increase in fungal specificity because the fold change of the immunosuppressive reduction is greater than the antifungal activity reduction. As an example, JH-FK-05 is 20-fold reduced for antifungal activity but about 180-fold reduced for immunosuppression. Therefore, the TIscore of JH-FK-05 is 9.1 (TIscore=182/20). The top two analogs were JH-FK-02 (TIscore=9.7) and JH-FK-05 (TIscore=9.1). Due to the similar TIscore, JH-FK-05 was prioritized to advance to animal trials on the merit of more pronounced antifungal activity compared to JH-FK-02.
Based on the in vitro fungal and mammalian calcineurin inhibition data, the panel of FK520 analogs was assessed and ranked. Therapeutic index (TI) scores were used to quantify the effects of structural modification on the compounds (Table 8). Therapeutic index scores were calculated for each analog as the ratio of relative change in immunosuppressive and antifungal activities compared to FK506 as previously utilized (see, I-Toy M J, et at. 2022. mBio 13:e0104922). This ratio of therapeutic benefit and host toxicity, or fungal and mammalian calcineurin inhibition, allowed us to quantify and rank these analogs. […] This is the greatest TI found within the library and allowed us to identify JH-FK-08 as a lead candidate for an in vivo study. Tolerability of JH-FK-08 was assessed by monitoring animal responses to drug dosing across 14 days, including changes in weight, fur condition, and behavior. A maximum dose of 40 mg/kg was tested in once a day dosing, and due to solubility limitations, the tolerability of JH-FK-08 at 60 and 80 mg/kg total daily doses was assessed by dosing two equal doses per day (FIG. 14). […] It should be noted that analogs JH-FK-12 and JH-FK-23 are also promising candidates with respective Tis of 24.7 and 24.5.

Aspergillus fumigatus = assay: MEC assay (Example 3); conditions: strain akuB^Ku80
[2] = system: IL-2 expression in primary mouse CD4+ T cells (mammalian calcineurin); assay: In vitro immunosuppressive activity, IL-2 expression (Example 3); type: cell-based; conditions: 72 h
Experimental: Modifications at the C-22 position reduce inhibition of mammalian calcineurin signaling Mammalian calcineurin inhibition was then assessed and found to be reduced for these FK520 analogs. The inhibition of mammalian calcineurin was assessed by measuring the reduction of IL-2 expression from primary mouse CD4^+ T cells cultured in the presence of FK506, FK520, or an analog. Calcineurin activity is required for T cell activation and cytokine production, and IL-2 production serves as an effective measure of mammalian calcineurin activity. After culturing mouse CD4′ T cells for 72 h, IL-2 expression was analyzed by flow cytometry to evaluate the immunosuppressive activity of the analogs. […] However, compound concentrations that permit high IL-2 expression are less likely to result in cell death.
Spleen and lymph nodes from C57BL/6 mice were collected and homogenized through a 40-μm filter. Pan-CD4^+ T cells were enriched using the MagniSort Mouse CD4 T Cell Enrichment Kit (Invitrogen). Thereafter, CD4^+CD25^−CD62L^hiCD44^lo naïve CD4^+ T cells were FACS-sorted using a MoFlo Astrios cell sorter (Beckman Coulter). Naïve CD4^+ T cells were cultured in Iscove's Modified Dulbecco's Medium supplemented with 10% fetal bovine serum (FBS), penicillin (10 U/mL), streptomycin (10 μg/mL), glutamine (2 mM), gentamicin (50 μg/mL), and β-mercaptoethanol (55 μM). Cells were cultured for 72 h on anti-hamster IgG-coated plates with hamster anti-CD3s antibodies, hamster anti-CD28 antibodies, neutralizing anti-IL-4 antibodies, recombinant IL-12 (10 ng/mL), and recombinant IL-2 (50 U/mL). During this culture, cells were incubated with serially diluted drugs suspended in DMSO.

Candida albicans = assay: MIC assay (Example 3); type: cell-based; conditions: Candida albicans
Experimental: (§1) In vitro antifungal activity was assessed for all fungal strains in RPMI 1640 (Sigma-Aldrich R1383). MICs were measured using Clinical and Laboratory Standards Institute (CLSI) M38-A2 and M27-A3 standard in vitro antifungal susceptibility protocols. C. neoformans and A. fumigatus testing was performed at 37° C. MECs for A. fumigatus were recorded after 48 h of growth. C. albicans testing was performed at 30° C. with a uniform concentration of 2 μg/mL of fluconazole to sensitize the cells to calcineurin inhibition.
(§2) C. neoformans clinical isolate H99 and congenic-derived strain KN99α were used (see, Nielsen K, et al., 2003. Infect Immun 71:4831-4841). KN99α-derived frr1Δ deletion mutants with nourseothricin resistance markers as part of the Madhani deletion collection (NIH funding R01AI100272) were used. C. deneoformans strains used include JEC21 and derived C21F2 (CNB1-1) and C21F3 (frr1-3) strains (see, Odom A, et al., 1997. EMBO J 16:2576-2589; Moore T D, Edman J C. 1993. Mol Cell Biol 13:1962-1970; Fox D S, et al., 2001. Mol Microbiol 39:835-849). C. albicans strain SC5314 is the wild-type strain from which mutants YAG171 (rbp1/rbp1) and YAG237 (CNB1-1/CNB1) were derived (see, Cruz M C, et al., 2001. Antimicrob Agents Chemother 45:3162-3170). A. fumigatus strain akuB^Ku80 and a derived FKBP12 mutant fkbp12A were used during antifungal screening (see, Falloon K, et al., 2015. PLoS One 10:e0137869).

Cryptococcus neoformans = assay: MIC assay (Example 3); type: cell-based; conditions: Cryptococcus neoformans
Experimental: as §1, §2

[3] = SC5314, MIC80, 30° C. with 2 μg/mL fluconazole, read-out: MIC against Candida albicans (SC5314)
[4] = MIC90, 37° C., read-out: MIC against Cryptococcus neoformans (H99)
[5] = SC5314, read-out: MIC against Candida albicans (SC5314)
[6] = read-out: MIC against Cryptococcus neoformans (H99)

SMILES	Therapeutic index [1]	MEC against Aspergillus fumigatus (akuB^Ku80) (Aspergillus fumigatus) [µg/mL]	pIC50 [2]	MIC (Candida albicans; [3]) [µg/mL]	MIC (Cryptococcus neoformans; [4]) [µg/mL]	MIC (Cryptococcus neoformans; Table 8, read-out: H99 MIC90) [µg/mL]	MIC (Candida albicans; [5]) [µg/mL]	MIC (Cryptococcus neoformans; [6]) [µg/mL]
CC[C@@H]1/C=C(\C)C[C@H](C)C[C@H](OC)[C@H]2O[C@@](O)(C(=O)C(=O)N3CCCC[C@H]3C(=O)O[C@H](/C(C)=C/C3CC[C@@H](O)[C@H](OC)C3)[C@H](C)[C@@H](O)C/C1=N/NC(=O)c1ccc(N)cc1)[C@H](C)C[C@@H]2OC (stereo partly drawn) [JH-FK-20]	12.3	0.6	7.75	0.8 (≈ 0.865 µM)	0.8 (≈ 0.865 µM)	0.8 (≈ 0.865 µM)		
CC[C@@H]1/C=C(\C)C[C@H](C)C[C@H](OC)[C@H]2O[C@@](O)(C(=O)C(=O)N3CCCC[C@H]3C(=O)O[C@H](/C(C)=C/C3CC[C@@H](O)[C@H](OC)C3)[C@H](C)[C@@H](O)C/C1=N/NC(=O)c1ccncc1)[C@H](C)C[C@@H]2OC (stereo partly drawn) [JH-FK-09]	7.8	1.3	7.95	0.8 (≈ 0.878 µM)	0.8 (≈ 0.878 µM)	0.8 (≈ 0.878 µM)		
CC[C@@H]1/C=C(\C)C[C@H](C)C[C@H](OC)[C@H]2O[C@@](O)(C(=O)C(=O)N3CCCC[C@H]3C(=O)O[C@H](/C(C)=C/C3CC[C@@H](O)[C@H](OC)C3)[C@H](C)[C@@H](O)C/C1=N/NC(N)=O)[C@H](C)C[C@@H]2OC (stereo partly drawn) [JH-FK-12]	24.7	2.5	7.45	0.8 (≈ 0.942 µM)	0.8 (≈ 0.942 µM)	0.8 (≈ 0.942 µM)		
CC[C@@H]1/C=C(\C)C[C@H](C)C[C@H](OC)[C@H]2O[C@@](O)(C(=O)C(=O)N3CCCC[C@H]3C(=O)O[C@H](/C(C)=C/[C@@H]3CC[C@@H](O)[C@H](OC)C3)[C@H](C)[C@@H](O)CC1=NNS(=O)(=O)c1ccc(C)cc1)[C@H](C)C[C@@H]2OC [JH-FK-13]		>10					> 50	> 50
CC[C@@H]1/C=C(\C)C[C@H](C)C[C@H](OC)[C@H]2O[C@@](O)(C(=O)C(=O)N3CCCC[C@H]3C(=O)O[C@H](/C(C)=C/C3CC[C@@H](O)[C@H](OC)C3)[C@H](C)[C@@H](O)C/C1=N/NS(C)(=O)=O)[C@H](C)C[C@@H]2OC (stereo partly drawn) [JH-FK-23]	24.5	5	7.15	1.6 (≈ 1.81 µM)	1.6 (≈ 1.81 µM)	1.6 (≈ 1.81 µM)		
CCNN=C1C[C@H](O)[C@@H](C)[C@@H](/C(C)=C/[C@@H]2CC[C@@H](O)[C@H](OC)C2)OC(=O)[C@@H]2CCCCN2C(=O)C(=O)[C@]2(O)O[C@H]([C@@H](OC)C[C@@H](C)C/C(C)=C/[C@H]1CC)[C@@H](OC)C[C@H]2C [JH-FK-16]		1.3					0.4 (≈ 0.48 µM)	0.4 (≈ 0.48 µM)
CC[C@@H]1/C=C(\C)C[C@H](C)C[C@H](OC)[C@H]2O[C@@](O)(C(=O)C(=O)N3CCCC[C@H]3C(=O)O[C@H](/C(C)=C/C3CC[C@@H](O)[C@H](OC)C3)[C@H](C)[C@@H](O)C/C1=N/NC(=O)CO)[C@H](C)C[C@@H]2OC (stereo partly drawn) [JH-FK-22]	15.6		7.35			1.6 (≈ 1.85 µM)		
CC[C@@H]1/C=C(\C)C[C@H](C)C[C@H](OC)[C@H]2O[C@@](O)(C(=O)C(=O)N3CCCC[C@H]3C(=O)O[C@H](/C(C)=C/C3CC[C@@H](O)[C@H](OC)C3)[C@H](C)[C@@H](O)C/C1=N/NC(=O)c1cccc(C(=O)NN)c1)[C@H](C)C[C@@H]2OC (stereo partly drawn) [JH-FK-14]	4.9	0.6	7.85	0.8 (≈ 0.826 µM)	1.6 (≈ 1.65 µM)	1.6 (≈ 1.65 µM)		
CCN/N=C1/C[C@H](O)[C@@H](C)[C@@H](/C(C)=C/C2CC[C@@H](O)[C@H](OC)C2)OC(=O)[C@@H]2CCCCN2C(=O)C(=O)[C@]2(O)O[C@H]([C@@H](OC)C[C@@H](C)C/C(C)=C/[C@H]1CC)[C@@H](OC)C[C@H]2C (stereo partly drawn) [JH-FK-16]	8.2		8.23			0.4 (≈ 0.48 µM)		
CC[C@@H]1/C=C(\C)C[C@H](C)C[C@H](OC)[C@H]2O[C@@](O)(C(=O)C(=O)N3CCCC[C@H]3C(=O)O[C@H](/C(C)=C/C3CC[C@@H](O)[C@H](OC)C3)[C@H](C)[C@@H](O)C/C1=N/NC(=O)NN)[C@H](C)C[C@@H]2OC (stereo partly drawn) [JH-FK-21]	18.9		7.26			1.6 (≈ 1.85 µM)		
CC[C@@H]1/C=C(\C)C[C@H](C)C[C@H](OC)[C@H]2O[C@@](O)(C(=O)C(=O)N3CCCC[C@H]3C(=O)O[C@H](/C(C)=C/[C@@H]3CC[C@@H](O)[C@H](OC)C3)[C@H](C)[C@@H](O)CC1=NNC(=O)CO)[C@H](C)C[C@@H]2OC [JH-FK-22]		2.5					1.6 (≈ 1.85 µM)	1.6 (≈ 1.85 µM)
CC[C@@H]1/C=C(\C)C[C@H](C)C[C@H](OC)[C@H]2O[C@@](O)(C(=O)C(=O)N3CCCC[C@H]3C(=O)O[C@H](/C(C)=C/[C@@H]3CC[C@@H](O)[C@H](OC)C3)[C@H](C)[C@@H](O)CC1=NNC(=O)NN)[C@H](C)C[C@@H]2OC [JH-FK-21]		2.5					0.8 (≈ 0.926 µM)	1.6 (≈ 1.85 µM)

Source: patent US20260315446A1, “ANTIFUNGAL COMPOUNDS AND USES THEREOF” (priority 2023, published 2026)
